pKd: −log10 of the molar value. Read-outs that look alike come from different tables or passages of the source.
Key:
[1] = system: YFV-17D^DiD; type: cell-based, Yellow fever virus
[2] = system: YFV; type: cell-based, Yellow fever virus
[3] = system: YFV-17D; type: cell-based, Yellow fever virus
[4] = system: WT-YFV strain FJYF03/2016; design: species or system C57 mice; conditions: mouse, in vivo
[5] = system: YFV-17D; type: cell-based, Yellow fever virus; remark: listed apart in the source
[6] = system: dengue virus (DENV); type: cell-based
[7] = system: YFV-17D; type: cell-based, Yellow fever virus; remark: listed apart in the source
[8] = system: Zika virus (ZIKV); type: cell-based
[9] = system: YFV replicon; type: cell-based, Yellow fever virus
[10] = system: clathrin-mediated endocytosis; type: cell-based, Human
[11] = system: WT-YFV strain FJYF03/2016; design: species or system A129^−/− mice; conditions: mouse, in vivo
[12] = system: YFV-17D; type: cell-based, Yellow fever virus; remark: listed apart in the source
[13] = system: West Nile virus (WNV); type: cell-based
[14] = biological target: WNV NS5 (West Nile virus, UniProt Q9Q6P4); assay: biochemical; type: binding
WNV NS5, sequence (Q9Q6P4 2529-3433 limits assumed): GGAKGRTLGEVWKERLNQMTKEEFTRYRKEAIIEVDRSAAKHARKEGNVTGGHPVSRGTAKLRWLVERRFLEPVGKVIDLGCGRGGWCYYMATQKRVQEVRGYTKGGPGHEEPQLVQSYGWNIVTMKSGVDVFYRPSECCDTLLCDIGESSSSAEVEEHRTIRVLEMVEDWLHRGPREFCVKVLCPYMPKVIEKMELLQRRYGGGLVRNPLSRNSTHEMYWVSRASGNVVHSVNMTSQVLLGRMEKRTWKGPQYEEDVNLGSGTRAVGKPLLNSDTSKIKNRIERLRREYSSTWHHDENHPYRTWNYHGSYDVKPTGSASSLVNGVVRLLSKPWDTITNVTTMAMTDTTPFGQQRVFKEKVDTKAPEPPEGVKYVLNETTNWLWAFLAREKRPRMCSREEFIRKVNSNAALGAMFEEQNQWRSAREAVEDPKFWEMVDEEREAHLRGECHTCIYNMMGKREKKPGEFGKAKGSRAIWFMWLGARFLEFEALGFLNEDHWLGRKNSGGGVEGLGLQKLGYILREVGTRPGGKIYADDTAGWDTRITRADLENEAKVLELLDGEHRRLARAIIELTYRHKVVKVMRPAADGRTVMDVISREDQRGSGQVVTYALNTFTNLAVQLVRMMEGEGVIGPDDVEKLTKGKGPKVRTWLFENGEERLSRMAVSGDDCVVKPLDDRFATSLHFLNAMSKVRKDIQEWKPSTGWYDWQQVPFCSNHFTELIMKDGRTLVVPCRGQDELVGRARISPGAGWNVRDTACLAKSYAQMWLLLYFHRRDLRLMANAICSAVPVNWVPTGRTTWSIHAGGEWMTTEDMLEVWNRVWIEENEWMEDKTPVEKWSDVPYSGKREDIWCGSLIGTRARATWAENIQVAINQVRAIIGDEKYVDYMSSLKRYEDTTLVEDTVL

[15] = biological target: YFV NS5 (Yellow fever virus, UniProt P03314); assay: biochemical; type: binding
YFV NS5, sequence (P03314 2507-3411 limits assumed): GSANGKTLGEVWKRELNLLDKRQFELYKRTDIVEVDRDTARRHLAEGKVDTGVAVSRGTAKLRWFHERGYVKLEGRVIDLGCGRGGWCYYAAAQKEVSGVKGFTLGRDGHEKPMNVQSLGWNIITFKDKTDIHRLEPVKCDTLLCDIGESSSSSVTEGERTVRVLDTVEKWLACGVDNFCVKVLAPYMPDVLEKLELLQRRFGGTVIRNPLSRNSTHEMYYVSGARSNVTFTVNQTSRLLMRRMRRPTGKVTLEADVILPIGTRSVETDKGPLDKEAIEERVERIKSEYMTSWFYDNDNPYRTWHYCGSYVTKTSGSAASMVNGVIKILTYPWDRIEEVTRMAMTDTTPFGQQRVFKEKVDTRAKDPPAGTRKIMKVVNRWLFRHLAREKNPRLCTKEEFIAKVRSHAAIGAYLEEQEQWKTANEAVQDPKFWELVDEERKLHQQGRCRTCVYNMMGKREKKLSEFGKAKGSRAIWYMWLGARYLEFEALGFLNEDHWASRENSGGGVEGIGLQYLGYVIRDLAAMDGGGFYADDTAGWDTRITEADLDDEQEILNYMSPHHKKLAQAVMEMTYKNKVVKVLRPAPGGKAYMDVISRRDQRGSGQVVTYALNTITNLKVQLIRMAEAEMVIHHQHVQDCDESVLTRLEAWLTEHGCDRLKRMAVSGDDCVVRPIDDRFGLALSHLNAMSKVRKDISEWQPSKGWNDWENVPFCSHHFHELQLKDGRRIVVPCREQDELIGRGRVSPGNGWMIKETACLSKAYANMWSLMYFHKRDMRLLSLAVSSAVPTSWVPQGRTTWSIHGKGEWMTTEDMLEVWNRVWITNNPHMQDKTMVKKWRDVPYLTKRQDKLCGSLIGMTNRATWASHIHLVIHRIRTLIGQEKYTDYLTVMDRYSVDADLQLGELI

[16] = system: WNV; type: cell-based, West Nile virus
[17] = system: hepatitis C virus (HCV); type: cell-based
[18] = system: Japanese encephalitis virus (JEV); type: cell-based

Cl.N [NH4Cl]
virion-host cell fusion (DiD fluorescence signal) [1]: fluorescence signal reduced significantly

CO[C@H]1/C=C/O[C@@]2(C)Oc3c(C)c(O)c4c(O)c(c(/C=N/N5CCN(C6CCCC6)CC5)c(O)c4c3C2=O)NC(=O)/C(C)=C\C=C\[C@H](C)[C@H](O)[C@@H](C)[C@@H](O)[C@@H](C)[C@H](OC(C)=O)[C@@H]1C [Rifapentine]
YFV assembly and release [2]: did not influence YFV assembly and release | effect on YFV infection in kinetic test [3]: obstructive effect on YFV infection throughout the entire phase of viral entry and post-entry stages | body weight of surviving mice [4]: all recovered to normal levels | clinical symptoms [4]: fewer injury features | survival of mice [4]: significantly improved the survival of mice | survival rate [4]: approximately 40% | virion-host cell fusion (DiD fluorescence signal) [1]: no inhibitory effect | YFV attachment to the cell surface [5]: impeded YFV attachment to the cell surface in a dose-dependent manner | inhibitory effect on DENV infection [6]: no obvious inhibitory effect | intracellular YFV RNA level [7]: suppressed in a dose-dependent manner | inhibitory effect on ZIKV infection [8]: no obvious inhibitory effect | YFV replication in replicon cells [9]: robustly abolished YFV replication from 1 to 25 μM | TF uptake [10]: No major changes | body weight of survival mice [11]: recovered to almost the normal level | clinical signs [11]: slowed down or reduced the occurrence of clinical signs | survival rate [11]: significantly enhanced the survival rate | virus titres in kidney [11]: did not recognize distinctive changes | virus titres in liver [11]: did not recognize distinctive changes | virus titres in serum [11]: reduced virus titres significantly | virus titres in spleen [11]: reduced virus titres significantly | infectivity of virions incubated with compound [12]: no obvious differences in infectivity | inhibitory effect on WNV infection [13]: slight suppressive activity above 5 μM | pKd [14]: 4.26 | pKd [15]: 4.68 | WNV binding [16]: did not affect WNV binding | inhibitory effect on HCV infection [17]: no obvious inhibitory effect | inhibitory effect on JEV infection [18]: no obvious inhibitory effect

CC(C)OC(=O)[C@H](C)N[P@](=O)(OC[C@H]1O[C@@H](n2ccc(=O)[nH]c2=O)[C@](C)(F)[C@@H]1O)Oc1ccccc1 [Sofosbuvir]
YFV replication in replicon cells [9]: relatively good inhibitory effect | survival rate [11]: slight protective activity in the highest infection-dose group | pKd [15]: 2.21

CO/C1=C\C(C)=C\[C@@H](C)[C@@H](O)[C@@H](C)C/C(C)=C/C=C/[C@H](OC)[C@@H]([C@@H](C)[C@@H](O)[C@H](C)[C@@]2(O)C[C@@H](O)[C@H](C)[C@@H](C(C)C)O2)OC1=O [bafilomycin A1]
virion-host cell fusion (DiD fluorescence signal) [1]: fluorescence signal reduced significantly
